These results are taken from patent publication US12576169B2, “Silicon-fluoride acceptor substituted radiopharmaceuticals and precursors thereof” (Technische Universität München, priority 2019, dated 2026).

One series concerns the target PSMA (Homo sapiens, UniProt Q04609). Description: IC50 determination: PSMA binding affinity, competition with [125I]XII on LNCaP cells.
Series [1] in a line: n-Octanol-PBS partition coefficient (logD7.4). The following applies: 18F-labeled ligand; n-octanol/PBS pH=7.4; mean ± SD (n = 5). The class given is physicochemical. Here is the method:
Approx. 0.5 MBq of the ^18F-labeled SiFA-PSMA ligand were added into a test tube containing n-octanol (500 μL) and PBS (500 μL, pH=7.4). After vigorously shaking the two-phase mixture for 3 min at rt, the test tube was centrifuged at 9.000 rpm for 5 min to achieve quantitative phase separation. Finally, 150 μL of each layer were pipetted off and measured for activity using a gamma counter. After repeating the experiment for at least five times, the n-octanol-PBS partition coefficient log D7.4 was calculated according to following formula.

The next series has as its system LNCaP cells. Kind of series: Internalization of 18F-labeled ligands into LNCaP cells. The class given is cell-based, human. The conditions noted are these: internalized activity at 1 h in % of reference [125I]XII; c = 0.5 nM; LNCaP cells (125.000 cells/well); 37° C., DMEM/F-12 add. 5% BSA; corrected for non-specific binding (10 μm PMPA); mean ± SD (n = 3). Here is the method:
LNCaP cells were grown in DMEM/F-12 (add. 10% FCS, v/v) and maintained at 37° C. in a humidified 5% CO2 atmosphere. […] Subsequent to the removal of the culture medium, cells were washed with DMEM-F12 (add. 5% BSA, v/v, 500 μL) and left to equilibrate in DMEM-F12 (add. 5% BSA, v/v, 200 μL) at 37° C. for 15 min. Each well was treated with either DMEM-F12 (add. 5% BSA, v/v, 25 μL) or a 2-(phosphonomethyl)-pentandioic acid (PMPA) solution (100 μM in PBS, 25 μL) for blockade. Afterwards, the ^18F-labeled SiFA-PSMA ligand (5 nM in PBS, 25 μL) was added and the cells were incubated for 1 h at 37° C. The experiment was terminated by placing the 24-well plate on ice for 3 min and removal of the assay medium. Each well was rinsed with HBSS (4° C., 250 μL) and the fractions were combined with the previous assay medium, representing the amount of unbound radioligand. For removal of surface bound activity, LNCaP cells were incubated with PMPA solution (10 μM in PBS, 4° C., 250 μL) for 5 min and rinsed again with PBS (250 μL, 4° C.). The internalized activity was determined by incubation of LNCaP cells with 1 M aq. NaOH (250 μL) for at least 10 min and combination with the fraction of a subsequent wash step with 1 M aq. NaOH (200 μL). Each experiment (control and blockade) was performed in triplicate. […] All internalization studies were accompanied by reference studies using the reference compound XII (2 nM in HBSS add. 1% BSA, v/v), which were performed analogously. Data were corrected for non-specific internalization and normalized to the specific-internalization observed for the radioiodinated reference compound.

Series [2] deals with T1, human serum albumin (HSA) (Homo sapiens, UniProt P02768).
T1 construct: purchased H13H-2433
T1 sequence (P02768 25-609): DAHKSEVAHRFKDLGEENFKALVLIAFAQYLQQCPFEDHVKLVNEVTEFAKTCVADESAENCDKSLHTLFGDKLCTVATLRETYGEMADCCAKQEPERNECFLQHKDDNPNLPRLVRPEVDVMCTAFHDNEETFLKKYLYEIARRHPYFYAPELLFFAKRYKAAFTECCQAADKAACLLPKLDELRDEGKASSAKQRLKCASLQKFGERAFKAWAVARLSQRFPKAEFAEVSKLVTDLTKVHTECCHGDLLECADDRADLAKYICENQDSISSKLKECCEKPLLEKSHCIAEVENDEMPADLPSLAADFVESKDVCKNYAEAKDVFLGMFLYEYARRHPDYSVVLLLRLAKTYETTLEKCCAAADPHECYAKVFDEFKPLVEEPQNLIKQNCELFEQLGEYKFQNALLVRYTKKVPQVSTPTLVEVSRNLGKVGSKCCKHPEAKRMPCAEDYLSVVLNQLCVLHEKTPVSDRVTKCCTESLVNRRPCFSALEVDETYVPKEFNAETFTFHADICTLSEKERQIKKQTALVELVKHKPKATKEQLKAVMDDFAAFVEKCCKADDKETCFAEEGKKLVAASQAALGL
Kind of series: Binding to HSA on a Chiralpak HSA column. The conditions noted are these: calibration with nine reference substances. The class given is in vitro ADME. Here is the method: For the determination of human serum albumin (HSA) binding, a Chiralpak HSA column (50×3 mm, 5 μm, H13H-2433) was used at a constant flow rate of 0.5 mL/min. The mobile phase composed of a 50 mM NH4OAc solution in water with pH=7 (solvent C) and isopropanol (solvent D) was freshly prepared for each experiment and used only once. The reference substances (Table 1) as well as the analyzed SiFA-PSMA ligands were dissolved in a mixture of solvent C/solvent D (1:1, v/v, 0.5 mg/mL) and eluted from the HSA column (0-3 min: 100% C, 3-20 min: 20% D in C, λ=254 nm). The column was kept at rt and each run was stopped after detection of the signal to reduce the acquisition time. The nine reference substances display an HSA binding range of 13% to 99% and were injected consecutively in order to establish a sigmoidal calibration curve with the software OriginPro 2018b (FIG. 1).

The mark [3] stands for this setting: LNCaP cells (150.000 cells/well), reference [125I]XII c = 0.2 nM, 1 h, 4° C., HBSS add. 1% BSA, mean ± SD (n = 3).

The structures appear in SMILES notation. Read-outs that look alike come from different tables or passages of the source. *1 amine or outer side, *2 acyl side, *3 side chain or, on linkers, in order; H or OH if unused. Where a SMILES comes first, the peptide text is derived from it. Side-chain parts run from the residue outwards. [ ]: non-standard residue; d: D form. The star is where a group is joined. X1 = O=C(O)CC[C@H](NC(=O)N[C@@H](CCC(=O)N[C@H](CCCN*)C(=O)O)C(=O)O)C(=O)O; Benzoyl(4-SiFtBu2) = CC(C)(C)[Si](F)(c1ccc(C(=O)*)cc1)C(C)(C)C; γGlu = O=C(O)[C@H](CCC(=O)[*:2])N[*:1]; dCit = NC(=O)NCCC[C@@H](N)C(=O)O; Suc = O=C(CCC(=O)[*:2])[*:1]; dDap = NC[C@@H](N)C(=O)O; CO = O=C([*:1])[*:2]

PSMA, sequence (Q04609 whole entry): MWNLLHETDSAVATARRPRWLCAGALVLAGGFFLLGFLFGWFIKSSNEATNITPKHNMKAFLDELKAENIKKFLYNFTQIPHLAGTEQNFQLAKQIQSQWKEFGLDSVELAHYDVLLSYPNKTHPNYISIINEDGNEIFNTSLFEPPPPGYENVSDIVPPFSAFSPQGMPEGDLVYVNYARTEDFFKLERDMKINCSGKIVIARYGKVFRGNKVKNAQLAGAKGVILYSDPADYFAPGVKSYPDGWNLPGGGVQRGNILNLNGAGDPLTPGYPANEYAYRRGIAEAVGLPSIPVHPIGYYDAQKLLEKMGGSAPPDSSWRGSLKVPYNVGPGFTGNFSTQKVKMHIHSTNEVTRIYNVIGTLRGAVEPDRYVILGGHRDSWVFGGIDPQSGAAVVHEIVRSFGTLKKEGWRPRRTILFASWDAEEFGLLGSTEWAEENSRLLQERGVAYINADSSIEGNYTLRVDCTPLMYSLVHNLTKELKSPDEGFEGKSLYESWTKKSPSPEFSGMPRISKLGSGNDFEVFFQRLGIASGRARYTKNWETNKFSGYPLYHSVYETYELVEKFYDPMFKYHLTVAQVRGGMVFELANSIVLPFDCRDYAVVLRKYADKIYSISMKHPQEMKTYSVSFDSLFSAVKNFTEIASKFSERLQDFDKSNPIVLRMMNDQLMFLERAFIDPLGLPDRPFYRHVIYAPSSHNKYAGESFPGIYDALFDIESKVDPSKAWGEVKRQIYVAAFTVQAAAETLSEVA
Description for PSMA: LNCaP cells were grown in Dulbecco's Modified Eagle Medium/Nutrient Mixture F-12 (DMEM/F-12, add. 10% fetal calf serum (FCS), v/v) and maintained at 37° C. in a humidified 5% CO2 atmosphere. […] After removal of the culture medium, LNCaP cells were treated with HBSS (add. 1% BSA, v/v, 4° C., 500 μL) and subsequently left 15 min on ice for equilibration in HBSS (add. 1% BSA, v/v, 4° C., 200 μL). […] For the control series, HBSS (add. 1% BSA, v/v, 25 μL) was used instead of the SiFA-PSMA ligand solution. Each concentration and the control were prepared in triplicate. After 1 h incubation on ice, the assay medium was removed and cells were washed with HBSS (200 μL, 4° C.). […] NaOH (200 μL) for at least 10 min and the resulting cell lysate was removed. The wells were treated again with 1 M aq. […] The experiment was repeated for at least three times and the IC50 value calculated using the GraphPad PRISM 8.0.2 software (Graphpad Software Inc., La Jolla, United States).

In turn, `CC(C)(C)[Si](F)(c1ccc(C(=O)NC[C@@H](NC(=O)CCCCCNC(=O)CC[C@H](NC(=O)N[C@@H](CCC(=O)O)C(=O)O)C(=O)O)C(=O)N[C@H](CCCCNC(=O)CCC(=O)NCCC[C@@H](NC(=O)CC[C@H](NC(=O)N[C@@H](CCC(=O)O)C(=O)O)C(=O)O)C(=O)O)C(=O)O)cc1)C(C)(C)C` [SiFA-PSMA ligand 02 c] came in with a half-inhibitory concentration (IC50) at PSMA (setting [3]) of 5.9 ± 1 nM. In series [1], this molecule returned a logD7.4 of −3.27 ± 0.02. The Internalization in the series on LNCaP cells turned out to be 156.95 ± 13.21%. Also, the “Binding to HSA” value in series [2] is recorded as at least 99.0%.
`CC(C)(C)[Si](F)(c1ccc(C(=O)NC[C@@H](NC(=O)CCCCCNC(=O)CC[C@@H](NC(=O)N[C@H](CCC(=O)O)C(=O)O)C(=O)O)C(=O)N[C@H](CCCCNC(=O)CCC(=O)NCCC[C@@H](NC(=O)CC[C@H](NC(=O)N[C@@H](CCC(=O)O)C(=O)O)C(=O)O)C(=O)O)C(=O)O)cc1)C(C)(C)C` [SiFA-PSMA ligand 02 d] displayed a 50% inhibitory concentration (IC50) on PSMA of 9.9 ± 0.8 nM. In series [1], this molecule registered a logD7.4 of −3.24 ± 0.03. In the series with LNCaP cells, the Internalization came out at 119.56 ± 5.84%. Also, in series [2], the “Binding to HSA” value was at least 98.9%.
For `CC(C)(C)[Si](F)(c1ccc(C(=O)NC[C@@H](NC(=O)CNC(=O)CNC(=O)CNC(=O)CC[C@H](NC(=O)N[C@@H](CCC(=O)O)C(=O)O)C(=O)O)C(=O)N[C@H](CCCCNC(=O)CCC(=O)NCCC[C@@H](NC(=O)CC[C@H](NC(=O)N[C@@H](CCC(=O)O)C(=O)O)C(=O)O)C(=O)O)C(=O)O)cc1)C(C)(C)C` [SiFA-PSMA ligand 02 e] ({Glu-CO-γGlu}-GGG[dDap](Benzoyl(4-SiFtBu2))[dK]([Suc-X1])-OH) the same measures were 9 ± 2.2 nM, −3.50 ± 0.04, 190.26 ± 16.87% and at least 98.9%.
As to `CC(C)(C)[Si](F)(c1ccc(C(=O)NC[C@@H](NC(=O)[C@@H](CC(=O)O)NC(=O)[C@@H](CCC(=O)O)NC(=O)[C@H](N)CCC(=O)O)C(=O)N[C@H](CCCCNC(=O)CCC(=O)NCCC[C@@H](NC(=O)CC[C@H](NC(=O)N[C@@H](CCC(=O)O)C(=O)O)C(=O)O)C(=O)O)C(=O)O)cc1)C(C)(C)C` [SiFA-PSMA ligand 03 a] (H-[dE][dE][dD][dDap](Benzoyl(4-SiFtBu2))[dK]([Suc-X1])-OH), the IC50 on PSMA (setting [3]) was 9.3 ± 1.7 nM. In series [1], the logD7.4 was −3.80 ± 0.06. The Internalization with LNCaP cells was found to be 135.74 ± 6.70%. In addition, the “Binding to HSA” value in series [2] was 98.8%.
For `CC(C)(C)[Si](F)(c1ccc(C(=O)NC[C@@H](NC(=O)[C@@H](CCC(=O)O)NC(=O)[C@@H](CCC(=O)O)NC(=O)[C@H](N)CCC(=O)O)C(=O)N[C@H](CCCCNC(=O)CCC(=O)NCCC[C@@H](NC(=O)CC[C@H](NC(=O)N[C@@H](CCC(=O)O)C(=O)O)C(=O)O)C(=O)O)C(=O)O)cc1)C(C)(C)C` [SiFA-PSMA ligand 03 b] (H-[dE][dE][dE][dDap](Benzoyl(4-SiFtBu2))[dK]([Suc-X1])-OH) the same measures were 8.8 ± 1 nM, −3.85 ± 0.04, 135.78 ± 5.50% and 98.9%.
On to `CC(C)(C)[Si](F)(c1ccc(C(=O)NC[C@@H](NC(=O)[C@@H](CCCNC(N)=O)NC(=O)[C@@H](CCC(=O)O)NC(=O)[C@H](N)CCC(=O)O)C(=O)N[C@H](CCCCNC(=O)CCC(=O)NCCC[C@@H](NC(=O)CC[C@H](NC(=O)N[C@@H](CCC(=O)O)C(=O)O)C(=O)O)C(=O)O)C(=O)O)cc1)C(C)(C)C` [SiFA-PSMA ligand 03 c] (H-[dE][dE][dCit][dDap](Benzoyl(4-SiFtBu2))[dK]([Suc-X1])-OH), for which the half-maximal inhibitory concentration (IC50) at PSMA (setting [3]) worked out at 11.7 ± 1.5 nM. The logD7.4 in series [1] is given as −3.31 ± 0.02. Further, in the series on LNCaP cells, the Internalization is recorded as 87.55 ± 2.28%. Moreover, in series [2], the “Binding to HSA” value is 98.6%.

The term IC50 denotes the concentration needed to halve the response being measured. Lower therefore signals higher potency.
